Test results: ChEMBL document CHEMBL5303573, “Mapping human microbiome drug metabolism by gut bacteria and their genes” (Nature, 2019)

Experiment: The drug is tested on Bifidobacterium ruminantium strain: fecal isolate for biotransformation. The drug concentrations were measured before and after a 12-h incubation by liquid-chromatography-coupled mass spectrometry (LC–MS)
Conditions: 2 µM

**Q.** Which “Bacterial Biotransformation” value does the source give for `CCN(CC)CCNC(C(=O)OCCC(C)C)c1ccccc1.Cl.Cl` (stereo unspecified) here?
**A.** Compound NOT metabolized

**Q.** For `c1ccc2[nH]c(-c3cscn3)nc2c1` [THIABENDAZOLE], which “Bacterial Biotransformation” value is on record?
**A.** Compound NOT metabolized

**Q.** Which “Bacterial Biotransformation” value does the source give for `O=C1N=C([O-])NC1(c1ccccc1)c1ccccc1.[Na+]` [PHENYTOIN SODIUM] here?
**A.** Compound metabolized

Experiment: The drug is tested on Alistipes indistinctus strain: DSM22520 for biotransformation. The drug concentrations were measured before and after a 12-h incubation by liquid-chromatography-coupled mass spectrometry (LC–MS)
Conditions: 2 µM

**Q.** With `CCN(CC)CCNC(C(=O)OCCC(C)C)c1ccccc1.Cl.Cl` (stereo unspecified) as the molecule, how does the “Bacterial Biotransformation” value read?
**A.** Compound NOT metabolized

**Q.** Which “Bacterial Biotransformation” value does the source give for `c1ccc2[nH]c(-c3cscn3)nc2c1` [THIABENDAZOLE] here?
**A.** Compound NOT metabolized

**Q.** For `O=C1N=C([O-])NC1(c1ccccc1)c1ccccc1.[Na+]` [PHENYTOIN SODIUM], which “Bacterial Biotransformation” value is on record?
**A.** Compound NOT metabolized

Experiment: The drug is tested on Bacteroides fragilis strain: HMW615 for biotransformation. The drug concentrations were measured before and after a 12-h incubation by liquid-chromatography-coupled mass spectrometry (LC–MS)
Conditions: 2 µM

**Q.** For `CCN(CC)CCNC(C(=O)OCCC(C)C)c1ccccc1.Cl.Cl` (stereo unspecified), which “Bacterial Biotransformation” value is on record?
**A.** Compound NOT metabolized

**Q.** With `c1ccc2[nH]c(-c3cscn3)nc2c1` [THIABENDAZOLE] as the molecule, how does the “Bacterial Biotransformation” value read?
**A.** Compound NOT metabolized

**Q.** For `O=C1N=C([O-])NC1(c1ccccc1)c1ccccc1.[Na+]` [PHENYTOIN SODIUM], which “Bacterial Biotransformation” value is on record?
**A.** Compound NOT metabolized

Experiment: The drug is tested on Bacteroides uniformis strain: ATCC8492 for biotransformation. The drug concentrations were measured before and after a 12-h incubation by liquid-chromatography-coupled mass spectrometry (LC–MS)
Conditions: 2 µM

**Q.** Which “Bacterial Biotransformation” value does the source give for `c1ccc2[nH]c(-c3cscn3)nc2c1` [THIABENDAZOLE] here?
**A.** Compound NOT metabolized

**Q.** With `O=C1N=C([O-])NC1(c1ccccc1)c1ccccc1.[Na+]` [PHENYTOIN SODIUM] as the molecule, how does the “Bacterial Biotransformation” value read?
**A.** Compound metabolized

Experiment: The drug is tested on Bacteroides vulgatus strain: ATCC8482 for biotransformation. The drug concentrations were measured before and after a 12-h incubation by liquid-chromatography-coupled mass spectrometry (LC–MS)
Conditions: phocaeicola vulgatus, 2 µM

**Q.** With `CCN(CC)CCNC(C(=O)OCCC(C)C)c1ccccc1.Cl.Cl` (stereo unspecified) as the molecule, how does the “Bacterial Biotransformation” value read?
**A.** Compound NOT metabolized

**Q.** Which “Bacterial Biotransformation” value does the source give for `O=C1N=C([O-])NC1(c1ccccc1)c1ccccc1.[Na+]` [PHENYTOIN SODIUM] here?
**A.** Compound metabolized

Experiment: The drug is tested on Bacteroides xylanisolvens strain: DSM18836 for biotransformation. The drug concentrations were measured before and after a 12-h incubation by liquid-chromatography-coupled mass spectrometry (LC–MS)
Conditions: 2 µM

**Q.** Which “Bacterial Biotransformation” value does the source give for `CCN(CC)CCNC(C(=O)OCCC(C)C)c1ccccc1.Cl.Cl` (stereo unspecified) here?
**A.** Compound NOT metabolized

**Q.** For `c1ccc2[nH]c(-c3cscn3)nc2c1` [THIABENDAZOLE], which “Bacterial Biotransformation” value is on record?
**A.** Compound NOT metabolized

**Q.** With `O=C1N=C([O-])NC1(c1ccccc1)c1ccccc1.[Na+]` [PHENYTOIN SODIUM] as the molecule, how does the “Bacterial Biotransformation” value read?
**A.** Compound NOT metabolized

Experiment: The drug is tested on Odoribacter splanchnicus strain: fecal isolate for biotransformation. The drug concentrations were measured before and after a 12-h incubation by liquid-chromatography-coupled mass spectrometry (LC–MS)
Conditions: 2 µM

**Q.** For `CCN(CC)CCNC(C(=O)OCCC(C)C)c1ccccc1.Cl.Cl` (stereo unspecified), which “Bacterial Biotransformation” value is on record?
**A.** Compound NOT metabolized

**Q.** Which “Bacterial Biotransformation” value does the source give for `O=C1N=C([O-])NC1(c1ccccc1)c1ccccc1.[Na+]` [PHENYTOIN SODIUM] here?
**A.** Compound metabolized

Experiment: The drug is tested on Clostridium sporogenes strain: ATCC15579 for biotransformation. The drug concentrations were measured before and after a 12-h incubation by liquid-chromatography-coupled mass spectrometry (LC–MS)
Conditions: 2 µM

**Q.** Which “Bacterial Biotransformation” value does the source give for `CCN(CC)CCNC(C(=O)OCCC(C)C)c1ccccc1.Cl.Cl` (stereo unspecified) here?
**A.** Compound NOT metabolized

**Q.** For `c1ccc2[nH]c(-c3cscn3)nc2c1` [THIABENDAZOLE], which “Bacterial Biotransformation” value is on record?
**A.** Compound NOT metabolized

**Q.** Which “Bacterial Biotransformation” value does the source give for `O=C1N=C([O-])NC1(c1ccccc1)c1ccccc1.[Na+]` [PHENYTOIN SODIUM] here?
**A.** Compound metabolized

Experiment: The drug is tested on Coprococcus comes strain: ATCC27758 for biotransformation. The drug concentrations were measured before and after a 12-h incubation by liquid-chromatography-coupled mass spectrometry (LC–MS)
Type: ADME
Design: dose 2 uM, timepoint 0 vs 12 hours
Conditions: 2 µM

**Q.** Which “Bacterial Biotransformation” value does the source give for `CCN(CC)CCNC(C(=O)OCCC(C)C)c1ccccc1.Cl.Cl` (stereo unspecified) here?
**A.** Compound NOT metabolized

**Q.** Which “Bacterial Biotransformation” value does the source give for `c1ccc2[nH]c(-c3cscn3)nc2c1` [THIABENDAZOLE] here?
**A.** Compound NOT metabolized

**Q.** With `O=C1N=C([O-])NC1(c1ccccc1)c1ccccc1.[Na+]` [PHENYTOIN SODIUM] as the molecule, how does the “Bacterial Biotransformation” value read?
**A.** Compound NOT metabolized

Experiment: The drug is tested on Dorea formicigenerans strain: ATCC27755 for biotransformation. The drug concentrations were measured before and after a 12-h incubation by liquid-chromatography-coupled mass spectrometry (LC–MS)
Conditions: 2 µM

**Q.** With `CCN(CC)CCNC(C(=O)OCCC(C)C)c1ccccc1.Cl.Cl` (stereo unspecified) as the molecule, how does the “Bacterial Biotransformation” value read?
**A.** Compound NOT metabolized

**Q.** Which “Bacterial Biotransformation” value does the source give for `c1ccc2[nH]c(-c3cscn3)nc2c1` [THIABENDAZOLE] here?
**A.** Compound NOT metabolized

**Q.** Which “Bacterial Biotransformation” value does the source give for `O=C1N=C([O-])NC1(c1ccccc1)c1ccccc1.[Na+]` [PHENYTOIN SODIUM] here?
**A.** Compound NOT metabolized

Experiment: The drug is tested on Enterococcus faecalis strain: V583 for biotransformation. The drug concentrations were measured before and after a 12-h incubation by liquid-chromatography-coupled mass spectrometry (LC–MS)
Conditions: 2 µM

**Q.** With `CCN(CC)CCNC(C(=O)OCCC(C)C)c1ccccc1.Cl.Cl` (stereo unspecified) as the molecule, how does the “Bacterial Biotransformation” value read?
**A.** Compound NOT metabolized

**Q.** For `c1ccc2[nH]c(-c3cscn3)nc2c1` [THIABENDAZOLE], which “Bacterial Biotransformation” value is on record?
**A.** Compound NOT metabolized

**Q.** With `O=C1N=C([O-])NC1(c1ccccc1)c1ccccc1.[Na+]` [PHENYTOIN SODIUM] as the molecule, how does the “Bacterial Biotransformation” value read?
**A.** Compound NOT metabolized

Experiment: The drug is tested on Eubacterium ventriosum strain: ATCC27560 for biotransformation. The drug concentrations were measured before and after a 12-h incubation by liquid-chromatography-coupled mass spectrometry (LC–MS)
Type: ADME
Design: dose 2 uM, timepoint 0 vs 12 hours
Conditions: 2 µM

**Q.** Which “Bacterial Biotransformation” value does the source give for `CCN(CC)CCNC(C(=O)OCCC(C)C)c1ccccc1.Cl.Cl` (stereo unspecified) here?
**A.** Compound NOT metabolized

**Q.** With `c1ccc2[nH]c(-c3cscn3)nc2c1` [THIABENDAZOLE] as the molecule, how does the “Bacterial Biotransformation” value read?
**A.** Compound NOT metabolized

Experiment: The drug is tested on Ruminococcus lactaris strain: ATCC29176 for biotransformation. The drug concentrations were measured before and after a 12-h incubation by liquid-chromatography-coupled mass spectrometry (LC–MS)
Conditions: 2 µM

**Q.** With `CCN(CC)CCNC(C(=O)OCCC(C)C)c1ccccc1.Cl.Cl` (stereo unspecified) as the molecule, how does the “Bacterial Biotransformation” value read?
**A.** Compound NOT metabolized

**Q.** Which “Bacterial Biotransformation” value does the source give for `c1ccc2[nH]c(-c3cscn3)nc2c1` [THIABENDAZOLE] here?
**A.** Compound NOT metabolized

Experiment: The drug is tested on Ruminococcus torques strain: ATCC27756 for biotransformation. The drug concentrations were measured before and after a 12-h incubation by liquid-chromatography-coupled mass spectrometry (LC–MS)
Type: ADME
Design: dose 2 uM, timepoint 0 vs 12 hours
Conditions: 2 µM

**Q.** With `CCN(CC)CCNC(C(=O)OCCC(C)C)c1ccccc1.Cl.Cl` (stereo unspecified) as the molecule, how does the “Bacterial Biotransformation” value read?
**A.** Compound NOT metabolized

**Q.** Which “Bacterial Biotransformation” value does the source give for `c1ccc2[nH]c(-c3cscn3)nc2c1` [THIABENDAZOLE] here?
**A.** Compound NOT metabolized

**Q.** For `O=C1N=C([O-])NC1(c1ccccc1)c1ccccc1.[Na+]` [PHENYTOIN SODIUM], which “Bacterial Biotransformation” value is on record?
**A.** Compound NOT metabolized

Experiment: The drug is tested on Providencia rettgeri strain: DSM1131 for biotransformation. The drug concentrations were measured before and after a 12-h incubation by liquid-chromatography-coupled mass spectrometry (LC–MS)
Type: ADME
Design: dose 2 uM, timepoint 0 vs 12 hours
Conditions: 2 µM

**Q.** Which “Bacterial Biotransformation” value does the source give for `CCN(CC)CCNC(C(=O)OCCC(C)C)c1ccccc1.Cl.Cl` (stereo unspecified) here?
**A.** Compound NOT metabolized

**Q.** Which “Bacterial Biotransformation” value does the source give for `c1ccc2[nH]c(-c3cscn3)nc2c1` [THIABENDAZOLE] here?
**A.** Compound NOT metabolized

**Q.** With `O=C1N=C([O-])NC1(c1ccccc1)c1ccccc1.[Na+]` [PHENYTOIN SODIUM] as the molecule, how does the “Bacterial Biotransformation” value read?
**A.** Compound NOT metabolized

Conditions: segatella copri, 12 h, 2 µM
Description: The drug is tested on Prevotella copri strain: DSM18205 for biotransformation. The drug concentrations were measured before and after a 12-h incubation by liquid-chromatography-coupled mass spectrometry (LC–MS)

**Q.** For `CCN(CC)CCNC(C(=O)OCCC(C)C)c1ccccc1.Cl.Cl` (stereo unspecified), which “Bacterial Biotransformation” value is on record?
**A.** Compound NOT metabolized

**Q.** With `c1ccc2[nH]c(-c3cscn3)nc2c1` [THIABENDAZOLE] as the molecule, how does the “Bacterial Biotransformation” value read?
**A.** Compound NOT metabolized

**Q.** For `O=C1N=C([O-])NC1(c1ccccc1)c1ccccc1.[Na+]` [PHENYTOIN SODIUM], which “Bacterial Biotransformation” value is on record?
**A.** Compound NOT metabolized

Conditions: anaerostipes sp., 12 h, 2 µM
Description: The drug is tested on Anaerostipes sp. strain: fecal isolate for biotransformation. The drug concentrations were measured before and after a 12-h incubation by liquid-chromatography-coupled mass spectrometry (LC–MS)

**Q.** Which “Bacterial Biotransformation” value does the source give for `CCN(CC)CCNC(C(=O)OCCC(C)C)c1ccccc1.Cl.Cl` (stereo unspecified) here?
**A.** Compound NOT metabolized

**Q.** Which “Bacterial Biotransformation” value does the source give for `c1ccc2[nH]c(-c3cscn3)nc2c1` [THIABENDAZOLE] here?
**A.** Compound NOT metabolized

**Q.** Which “Bacterial Biotransformation” value does the source give for `O=C1N=C([O-])NC1(c1ccccc1)c1ccccc1.[Na+]` [PHENYTOIN SODIUM] here?
**A.** Compound NOT metabolized

Conditions: roseburia intestinalis, 12 h, 2 µM
Description: The drug is tested on Roseburia intestinalis strain: L1-82 for biotransformation. The drug concentrations were measured before and after a 12-h incubation by liquid-chromatography-coupled mass spectrometry (LC–MS)

**Q.** With `CCN(CC)CCNC(C(=O)OCCC(C)C)c1ccccc1.Cl.Cl` (stereo unspecified) as the molecule, how does the “Bacterial Biotransformation” value read?
**A.** Compound NOT metabolized

**Q.** With `c1ccc2[nH]c(-c3cscn3)nc2c1` [THIABENDAZOLE] as the molecule, how does the “Bacterial Biotransformation” value read?
**A.** Compound NOT metabolized

**Q.** For `O=C1N=C([O-])NC1(c1ccccc1)c1ccccc1.[Na+]` [PHENYTOIN SODIUM], which “Bacterial Biotransformation” value is on record?
**A.** Compound NOT metabolized

Conditions: akkermansia muciniphila, 12 h, 2 µM
Description: The drug is tested on Akkermansia muciniphila strain: ATCC BAA-835 for biotransformation. The drug concentrations were measured before and after a 12-h incubation by liquid-chromatography-coupled mass spectrometry (LC–MS)

**Q.** For `CCN(CC)CCNC(C(=O)OCCC(C)C)c1ccccc1.Cl.Cl` (stereo unspecified), which “Bacterial Biotransformation” value is on record?
**A.** Compound NOT metabolized

**Q.** For `c1ccc2[nH]c(-c3cscn3)nc2c1` [THIABENDAZOLE], which “Bacterial Biotransformation” value is on record?
**A.** Compound NOT metabolized
